Measurements as given in patent US7012082B2, “Method of correcting HERG channel dysfunction” (priority 2002, dated 2006).

Legend:
HERG N470D = molecular target: T1, HERG N470D (Homo sapiens, UniProt Q12809, N470D); details: cultured at physiological temperature in low concentrations of drug; earlier publications; cited from earlier work
T1 construct: expressed in transfected cells

[1] = molecular target: T2, HERG N470D mutant channels (Homo sapiens, UniProt Q12809, N470D); details: cultured at physiological temperature in low concentrations of drug; earlier publications; cited from earlier work
[2] = molecular target: T2, HERG N470D mutant channels

Compound	mature HERG protein band on western blot, N470D cells (HERG N470D)	HERG current after drug washout, N470D cells (pharmacological rescue) [1]	rescue of N470D current [2]
COc1cc(N)c(Cl)cc1C(=O)NC1CCN(CCCOc2ccc(F)cc2)CC1OC (stereo not drawn) [cisapride]	appearance on western blot analysis of the mature HERG protein band	large amplitude HERG current could be recorded	–
Sodium-phenylbutyrate [4PBA]	–	–	did not rescue N470D current
